Laboratory results: ChEMBL document CHEMBL3991601, “The target landscape of clinical kinase drugs” (Science, 2017)
Calls of active or inactive are those of the source.

How the values were obtained:
[1] = biological target: T1, Dynamin-like GTPase OPA1, mitochondrial (Homo sapiens, UniProt O60313)
T1 sequence (O60313 whole entry): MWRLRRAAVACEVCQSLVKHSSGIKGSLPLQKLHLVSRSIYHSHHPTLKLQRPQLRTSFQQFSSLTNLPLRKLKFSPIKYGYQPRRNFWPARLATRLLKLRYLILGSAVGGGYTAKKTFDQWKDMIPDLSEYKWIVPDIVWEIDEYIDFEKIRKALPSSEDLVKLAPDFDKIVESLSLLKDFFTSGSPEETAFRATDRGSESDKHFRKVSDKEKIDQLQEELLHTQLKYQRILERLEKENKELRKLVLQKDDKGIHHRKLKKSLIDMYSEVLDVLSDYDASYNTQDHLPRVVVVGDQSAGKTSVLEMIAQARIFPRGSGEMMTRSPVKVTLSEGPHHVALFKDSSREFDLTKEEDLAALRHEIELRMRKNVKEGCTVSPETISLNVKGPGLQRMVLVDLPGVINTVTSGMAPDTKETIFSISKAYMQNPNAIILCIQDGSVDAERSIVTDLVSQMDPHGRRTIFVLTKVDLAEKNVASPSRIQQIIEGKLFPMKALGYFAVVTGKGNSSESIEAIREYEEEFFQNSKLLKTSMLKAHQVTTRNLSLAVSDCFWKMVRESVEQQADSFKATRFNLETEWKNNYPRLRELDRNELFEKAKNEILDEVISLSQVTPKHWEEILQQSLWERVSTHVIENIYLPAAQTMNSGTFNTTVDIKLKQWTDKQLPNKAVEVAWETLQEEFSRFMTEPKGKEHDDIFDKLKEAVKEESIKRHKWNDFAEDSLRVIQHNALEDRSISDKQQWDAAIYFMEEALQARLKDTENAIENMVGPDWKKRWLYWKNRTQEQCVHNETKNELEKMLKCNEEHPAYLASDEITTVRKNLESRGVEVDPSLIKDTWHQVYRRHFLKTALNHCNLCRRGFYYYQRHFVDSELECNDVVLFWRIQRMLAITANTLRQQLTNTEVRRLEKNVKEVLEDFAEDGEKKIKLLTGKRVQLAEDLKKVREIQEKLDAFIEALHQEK

Myosin-14 = Myosin-14 (Homo sapiens, UniProt Q7Z406)
Sequence of Myosin-14 (Q7Z406 whole entry): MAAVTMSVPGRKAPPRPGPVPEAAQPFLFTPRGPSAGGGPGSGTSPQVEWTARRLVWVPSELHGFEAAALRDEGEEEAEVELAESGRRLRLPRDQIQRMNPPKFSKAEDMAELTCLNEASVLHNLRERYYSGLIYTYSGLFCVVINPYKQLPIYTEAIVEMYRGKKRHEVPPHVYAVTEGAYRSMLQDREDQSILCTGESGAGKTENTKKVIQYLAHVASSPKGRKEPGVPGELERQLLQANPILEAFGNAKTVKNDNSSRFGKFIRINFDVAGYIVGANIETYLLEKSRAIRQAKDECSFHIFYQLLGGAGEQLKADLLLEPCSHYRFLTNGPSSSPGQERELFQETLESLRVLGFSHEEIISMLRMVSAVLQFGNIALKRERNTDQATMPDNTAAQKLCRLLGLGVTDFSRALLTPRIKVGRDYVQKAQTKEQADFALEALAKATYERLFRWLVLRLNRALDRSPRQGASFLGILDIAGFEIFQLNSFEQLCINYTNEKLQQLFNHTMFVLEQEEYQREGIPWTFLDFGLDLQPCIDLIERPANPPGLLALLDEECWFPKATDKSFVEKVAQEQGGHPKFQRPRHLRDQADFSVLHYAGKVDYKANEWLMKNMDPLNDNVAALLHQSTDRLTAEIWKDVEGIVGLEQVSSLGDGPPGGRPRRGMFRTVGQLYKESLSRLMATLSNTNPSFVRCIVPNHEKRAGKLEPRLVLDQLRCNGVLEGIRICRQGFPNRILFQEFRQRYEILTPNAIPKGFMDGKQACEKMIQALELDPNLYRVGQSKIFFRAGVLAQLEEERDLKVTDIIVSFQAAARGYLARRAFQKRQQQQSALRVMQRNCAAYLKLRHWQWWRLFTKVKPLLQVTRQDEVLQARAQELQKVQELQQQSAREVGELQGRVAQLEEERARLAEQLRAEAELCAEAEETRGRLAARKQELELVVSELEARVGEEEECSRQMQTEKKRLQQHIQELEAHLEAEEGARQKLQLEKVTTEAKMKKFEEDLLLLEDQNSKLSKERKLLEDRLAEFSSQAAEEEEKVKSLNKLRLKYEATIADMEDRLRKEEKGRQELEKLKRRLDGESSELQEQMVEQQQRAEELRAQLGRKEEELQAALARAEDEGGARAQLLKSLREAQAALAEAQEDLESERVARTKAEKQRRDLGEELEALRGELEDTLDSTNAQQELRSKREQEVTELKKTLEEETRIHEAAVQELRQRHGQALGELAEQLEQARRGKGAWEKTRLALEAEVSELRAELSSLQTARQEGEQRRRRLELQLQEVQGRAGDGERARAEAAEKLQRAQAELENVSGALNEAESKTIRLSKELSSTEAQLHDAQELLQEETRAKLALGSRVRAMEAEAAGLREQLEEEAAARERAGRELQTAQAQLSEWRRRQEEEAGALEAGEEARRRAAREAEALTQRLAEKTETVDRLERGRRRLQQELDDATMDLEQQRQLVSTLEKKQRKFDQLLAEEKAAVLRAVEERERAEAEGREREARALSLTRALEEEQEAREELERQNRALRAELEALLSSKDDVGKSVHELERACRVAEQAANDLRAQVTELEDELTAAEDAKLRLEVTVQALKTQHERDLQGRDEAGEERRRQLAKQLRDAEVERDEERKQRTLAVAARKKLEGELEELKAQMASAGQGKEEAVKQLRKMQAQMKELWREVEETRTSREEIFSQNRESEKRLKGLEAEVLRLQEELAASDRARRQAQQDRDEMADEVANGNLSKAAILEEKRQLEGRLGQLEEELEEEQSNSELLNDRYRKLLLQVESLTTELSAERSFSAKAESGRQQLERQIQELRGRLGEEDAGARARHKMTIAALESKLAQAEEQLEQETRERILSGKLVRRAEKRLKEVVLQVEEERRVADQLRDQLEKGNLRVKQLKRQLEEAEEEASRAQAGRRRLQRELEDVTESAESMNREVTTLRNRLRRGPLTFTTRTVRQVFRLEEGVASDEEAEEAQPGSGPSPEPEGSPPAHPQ

[2] = biological target: T2, Uncharacterized protein FLJ45252 (Homo sapiens, UniProt Q6ZSR9); settings: read-out: Kd apparent; k-562, colo 205, sk-n-be(2) and mv-4-11
T2 sequence (Q6ZSR9 whole entry): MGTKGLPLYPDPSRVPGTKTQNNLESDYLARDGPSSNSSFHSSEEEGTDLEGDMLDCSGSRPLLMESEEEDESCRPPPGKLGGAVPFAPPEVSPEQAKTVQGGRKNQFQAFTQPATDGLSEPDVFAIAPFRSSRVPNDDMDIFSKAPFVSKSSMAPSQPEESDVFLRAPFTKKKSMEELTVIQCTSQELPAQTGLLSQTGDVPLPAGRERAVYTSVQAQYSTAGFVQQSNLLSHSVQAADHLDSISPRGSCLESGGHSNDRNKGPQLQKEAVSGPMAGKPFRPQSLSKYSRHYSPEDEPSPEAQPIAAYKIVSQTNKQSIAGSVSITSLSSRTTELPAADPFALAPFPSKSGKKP

[3] = biological target: T3, Delta(24)-sterol reductase (Homo sapiens, UniProt Q15392)
T3 sequence (Q15392 whole entry): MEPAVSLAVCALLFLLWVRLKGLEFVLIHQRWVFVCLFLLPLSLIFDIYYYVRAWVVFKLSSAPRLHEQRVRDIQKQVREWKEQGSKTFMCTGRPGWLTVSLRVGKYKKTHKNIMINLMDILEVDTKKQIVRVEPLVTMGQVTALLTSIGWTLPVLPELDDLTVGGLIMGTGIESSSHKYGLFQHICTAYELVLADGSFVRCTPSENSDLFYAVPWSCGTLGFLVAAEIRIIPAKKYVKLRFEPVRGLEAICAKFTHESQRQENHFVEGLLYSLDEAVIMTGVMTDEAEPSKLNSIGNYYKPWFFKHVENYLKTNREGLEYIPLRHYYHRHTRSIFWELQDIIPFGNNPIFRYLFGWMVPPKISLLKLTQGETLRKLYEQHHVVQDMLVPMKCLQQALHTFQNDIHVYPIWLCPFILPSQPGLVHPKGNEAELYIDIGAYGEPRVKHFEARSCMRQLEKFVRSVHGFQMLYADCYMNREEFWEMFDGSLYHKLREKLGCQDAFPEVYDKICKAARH

[4] = biological target: T4, Mitogen-activated protein kinase kinase kinase kinase 2 (Homo sapiens, UniProt Q12851)
T4 sequence (Q12851 whole entry): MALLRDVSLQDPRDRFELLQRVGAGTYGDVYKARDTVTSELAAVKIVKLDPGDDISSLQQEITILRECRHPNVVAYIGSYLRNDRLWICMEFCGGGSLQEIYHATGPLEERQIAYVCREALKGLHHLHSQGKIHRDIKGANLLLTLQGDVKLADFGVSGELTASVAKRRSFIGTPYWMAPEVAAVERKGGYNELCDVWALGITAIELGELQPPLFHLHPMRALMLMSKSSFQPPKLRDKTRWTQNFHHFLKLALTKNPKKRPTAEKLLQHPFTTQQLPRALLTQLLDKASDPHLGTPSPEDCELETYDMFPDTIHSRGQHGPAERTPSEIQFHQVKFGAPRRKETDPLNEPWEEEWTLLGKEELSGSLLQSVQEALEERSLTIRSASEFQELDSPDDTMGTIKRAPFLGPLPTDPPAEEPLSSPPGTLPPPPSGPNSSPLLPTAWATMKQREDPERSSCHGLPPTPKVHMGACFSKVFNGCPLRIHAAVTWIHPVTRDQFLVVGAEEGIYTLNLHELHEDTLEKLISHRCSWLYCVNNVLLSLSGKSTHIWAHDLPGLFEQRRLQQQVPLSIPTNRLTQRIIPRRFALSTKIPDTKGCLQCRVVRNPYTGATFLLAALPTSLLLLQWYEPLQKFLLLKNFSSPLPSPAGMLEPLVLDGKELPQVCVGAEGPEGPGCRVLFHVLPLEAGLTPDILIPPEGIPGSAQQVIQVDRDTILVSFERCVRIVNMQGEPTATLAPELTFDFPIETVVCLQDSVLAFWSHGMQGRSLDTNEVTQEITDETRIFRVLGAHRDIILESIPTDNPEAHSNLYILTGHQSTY

[5] = biological target: T5, Ras-related protein Rab-10 (Homo sapiens, UniProt P61026)
T5 sequence (P61026 whole entry): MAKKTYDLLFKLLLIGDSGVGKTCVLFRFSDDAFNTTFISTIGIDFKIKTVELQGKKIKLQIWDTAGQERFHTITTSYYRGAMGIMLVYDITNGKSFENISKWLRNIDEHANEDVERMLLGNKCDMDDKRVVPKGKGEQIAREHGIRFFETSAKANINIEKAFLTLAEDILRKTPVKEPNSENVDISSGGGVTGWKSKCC
Note: in the data inactive means no Kd found up to 30 µM.

Kd [1]	Kd (Myosin-14)	Kd [2]	Kd [3]	Kd [4]	Kd [5]	Structure (SMILES)
> 30 µM (inactive)	> 30 µM (inactive)	> 30 µM (inactive)	> 30 µM (inactive)	> 30 µM (inactive)	> 30 µM (inactive)	CNC(=O)c1ccc(C)c(-n2c(C)cc(OCc3ccc(F)cc3F)c(Br)c2=O)c1 [PH-797804]
> 30 µM (inactive)	> 30 µM (inactive)	> 30 µM (inactive)	> 30 µM (inactive)	2.38 µM (active)	> 30 µM (inactive)	COc1cc2nccc(Oc3ccc(NC(=O)Nc4cc(C)on4)c(Cl)c3)c2cc1OC [TIVOZANIB]
> 30 µM (inactive)	> 30 µM (inactive)	> 30 µM (inactive)	> 30 µM (inactive)	> 30 µM (inactive)	> 30 µM (inactive)	Cc1ccc(NC(=O)c2ccc(CN3CC[C@H](N(C)C)C3)c(C(F)(F)F)c2)cc1Nc1nccc(-c2cncnc2)n1 [BAFETINIB]
> 30 µM (inactive)	> 30 µM (inactive)	> 30 µM (inactive)	> 30 µM (inactive)	> 30 µM (inactive)	> 30 µM (inactive)	Cn1cc(-c2ccc(F)c(C(F)(F)F)c2)nc1C1CCN(c2ncnc3[nH]ncc23)CC1 [LY-2584702]
> 30 µM (inactive)	> 30 µM (inactive)	0.078 µM (active)	> 30 µM (inactive)	> 30 µM (inactive)	> 30 µM (inactive)	O=C1NC(=O)/C(=C/c2ccc3nccc(-c4ccncc4)c3c2)S1 [GSK-1059615]
> 30 µM (inactive)	> 30 µM (inactive)	0.078 µM (active)	> 30 µM (inactive)	> 30 µM (inactive)	> 30 µM (inactive)	CCS(=O)(=O)N1CC(CC#N)(n2cc(-c3ncnc4[nH]ccc34)cn2)C1 [BARICITINIB]
> 30 µM (inactive)	> 30 µM (inactive)	0.007 µM (active)	> 30 µM (inactive)	> 30 µM (inactive)	> 30 µM (inactive)	O=C(Nc1ccc(-c2ccnc(Nc3ccc(N4CCOCC4)cc3)n2)cc1)C1CCCN1 (stereo not drawn) [XL-019]
> 30 µM (inactive)	> 30 µM (inactive)	> 30 µM (inactive)	> 30 µM (inactive)	0.11 µM (active)	> 30 µM (inactive)	COc1cc(CCc2cc(NC(=O)c3ccc(N4C[C@@H](C)N[C@@H](C)C4)cc3)n[nH]2)cc(OC)c1 [AZD-4547]
> 30 µM (inactive)	> 30 µM (inactive)	> 30 µM (inactive)	> 30 µM (inactive)	> 30 µM (inactive)	> 30 µM (inactive)	CN1CCC(CNc2ccc3ncc(-c4cccc(OC(F)(F)F)c4)n3n2)CC1 [SGI-1776]
> 30 µM (inactive)	> 30 µM (inactive)	> 30 µM (inactive)	> 30 µM (inactive)	> 30 µM (inactive)	> 30 µM (inactive)	C[C@@H](c1ccc2nccn2c1)n1nnc2ncc(-c3cnn(C)c3)nc21 [SAVOLITINIB]
> 30 µM (inactive)	> 30 µM (inactive)	> 30 µM (inactive)	> 30 µM (inactive)	> 30 µM (inactive)	> 30 µM (inactive)	Cc1cc([C@@H](C)Nc2ccccc2C(=O)O)c2nc(N3CCOCC3)cc(=O)n2c1 [AZD-6482]
> 30 µM (inactive)	> 30 µM (inactive)	> 30 µM (inactive)	> 30 µM (inactive)	> 30 µM (inactive)	> 30 µM (inactive)	COCCNCc1ccc(-c2cc3nccc(Oc4ccc(NC(=S)NC(=O)Cc5ccc(F)cc5)cc4F)c3s2)nc1 [GLESATINIB]
> 30 µM (inactive)	> 30 µM (inactive)	> 30 µM (inactive)	> 30 µM (inactive)	> 30 µM (inactive)	> 30 µM (inactive)	CCn1c(=O)c(-c2cc[nH]n2)cc2c(C)nc(N)nc21 [VOXTALISIB]
> 30 µM (inactive)	> 30 µM (inactive)	> 30 µM (inactive)	> 30 µM (inactive)	> 30 µM (inactive)	> 30 µM (inactive)	COc1ccc(-c2ccc3c(N4CCOC[C@@H]4C)nc(N4CCOC[C@@H]4C)nc3n2)cc1CO [AZD-8055]
> 30 µM (inactive)	> 30 µM (inactive)	> 30 µM (inactive)	> 30 µM (inactive)	> 30 µM (inactive)	> 30 µM (inactive)	Cc1cc2c(F)c(Oc3ncnn4cc(OC[C@@H](C)OC(=O)[C@H](C)N)c(C)c34)ccc2[nH]1 [BRIVANIB ALANINATE]

Structure (SMILES)	Kd [1]	Kd (Myosin-14)	Kd [2]	Kd [3]	Kd [4]	Kd [5]
O=C(c1ccc(F)c(F)c1Nc1ccc(I)cc1F)N1CC(O)([C@@H]2CCCCN2)C1 [COBIMETINIB]	> 30 µM (inactive)	> 30 µM (inactive)	> 30 µM (inactive)	> 30 µM (inactive)	> 30 µM (inactive)	> 30 µM (inactive)
COC(=O)[C@@]1(O)C[C@H]2O[C@]1(C)n1c3ccccc3c3c4c(c5c6ccccc6n2c5c31)C(=O)NC4 [K-252A]	> 30 µM (inactive)	> 30 µM (inactive)	0.021 µM (active)	> 30 µM (inactive)	0.131 µM (active)	> 30 µM (inactive)
Cc1ccc(-n2nc(C(C)(C)C)cc2NC(=O)NCc2cc(F)ccc2Oc2ccc3c(cnn3CCO)c2)cc1 [PEXMETINIB]	> 30 µM (inactive)	> 30 µM (inactive)	> 30 µM (inactive)	> 30 µM (inactive)	> 30 µM (inactive)	> 30 µM (inactive)
